Assays:
[1] = method code SF-AS, from DOI: 10.1016/0378-5173(80)90061-7
[2] = method code SF-HPLC, from DOI: 10.1080/02772248909357333
[3] = not given; remark: listed apart in the source
[4] = method code SF, from Ganellin, C. R., & Durant, G. J. (1981). Histamine H2-receptor agonists and antagonists. Burgers Medicinal Chemistry, 3, 487-552.; conditions: pH 11.8
[5] = not given; remark: listed apart in the source
[6] = method code SF-TN, from Korenman, I M.; Gurevich, N.; Kulagina, G. (1973). Extraction of certain n-alkylamines from aqueous solutions. Zh. Prikl. Khim., 46(3)726-728.
[7] = not given; remark: listed apart in the source
[8] = method code SF-HPLC, from DOI: 10.1021/je049947x
[9] = method code SF-AS, from Kosanovic, D.; Dumanovic, D.; Jovanovic, J. (1988). Solubility in octanol And the octanol-water partition coefficients of some 4(5)- and 5-nitroimidazoles. 53(10)559-563.
[10] = method code SF-AS, from DOI: 10.1016/0003-9861(82)90097-2, PMID: 6284047; conditions: pH 7.4
[11] = method code SF-RC, from DOI: 10.1016/s0969-8051(01)00233-5, PMID: 11518650
[12] = method code SF, from Korenman, I. M.; Klyukvina, T. D. (1972). Extraction of methylfurfural from aqueous solutions. Zh. Prikl. Khim., 45(11)2697-2699.
[13] = method code SF, from DOI: 10.1016/j.tca.2016.07.020; conditions: pH 7.4
[14] = method code SF-AS, from DOI: 10.1016/0891-5849(94)00112-w, PMID: 7744299; conditions: pH 7.5
[15] = method code SF-GLC, from DOI: 10.1021/ac00241a023
[16] = not given; remark: listed apart in the source
[17] = not given; remark: listed apart in the source
[18] = method code SF-HPLC, from DOI: 10.1016/j.ejps.2013.10.002, PMID: 24161609
[19] = method code SF-GLC, from DOI: 10.1002/etc.5620080910
[20] = method code SF, from DOI: 10.1016/j.jiec.2010.03.003
[21] = method code SF-AS, from DOI: 10.1016/0039-9140(93)80165-n, PMID: 18965747; conditions: pH 2.0
[22] = method code SF-AS, from DOI: 10.1016/0223-5234(93)90135-2; conditions: pH 12.0
[23] = method code SF-AS, from PMID: 2551304; conditions: pH 7.4
[24] = method code SF, from Brown, J.; Yu, N.; Cory, M.; Bicknell, R.; Taylor, D. (1978). In vivo evaluation of the radiosensitizing and cytotoxic properties of newly synthesized electron-affinic drugs. 3, 206-211.
[25] = method code SF, from DOI: 10.1016/0005-2744(69)90103-x, PMID: 4387594
[26] = method code SF-HPLC, from DOI: 10.1016/0378-5173(83)90028-5
[27] = method code SF-GLC, from DOI: 10.1002/jps.2600620103, PMID: 4734195

With `CCOC(=O)CCCO` the logP [1] was 0.43.

With `Cc1nccn1C` the logP was -0.04.

`COc1nn(CSP(=S)(OC)OC)c(=O)s1` gave a logP [2] of 2.22.

`CCOCCO` gave a logP [3] of -0.28.

In the case of `NCCc1c[nH]cn1`, the logD [4] is reported as -0.7.

In the case of `Oc1c(Br)c(Br)c(Br)c(Br)c1Br`, the logP [5] is reported as 5.3.

For `CCCCN`, the logP [6] was 0.74.

Compound `O=[N+]([O-])c1cc(Cl)ccc1Cl` has a logP [7] of 3.09.

For `CC(C)Nc1nc(N)nc(Cl)n1`, the logP [8] was 1.49.

Compound `CC(C)c1nc([N+](=O)[O-])c[nH]1` has a logP [9] of 0.9.

In the case of `CC1(C)CCC=[N+]1[O-]`, the logD [10] is reported as -1.03.

In the case of `CN(C)CCCF`, the logP [11] is reported as 1.27.

`Cc1ccc(C=O)o1` showed a logP [12] of 0.67.

`NC(=S)c1ccncc1` showed a logD [13] of 0.61.

Compound `O=Nc1ccccc1` has a logD [14] of 1.86.

`Clc1cccc(Cl)c1Cl` showed a logP [15] of 4.05.

With `Nc1cccc(O)c1` the logP [16] was 0.28.

Compound `CNC(=O)N(C)c1nnc(C(F)(F)F)s1` has a logP [17] of 1.46.

Work on `O=C(O)[C@H](O)[C@@H](O)C(=O)O` yielded a logP [18] of -1.2.

In the case of `O=[N+]([O-])c1ccc(Cl)cc1Cl`, the logP [19] is reported as 3.05.

`COC(C)(C)C` gave a logP [20] of 1.41.

For `CC(C)(C)C(=O)O`, the logD [21] was 1.42.

Compound `NCCc1nccs1` has a logD [22] of 0.16.

`Nc1ccncc1F` showed a logD [23] of 0.63.

For `CC(O)Cn1ccnc1[N+](=O)[O-]` (stereo not drawn), the logP [24] was -0.16.

With `Nc1ccccc1F` the logP [25] was 1.26.

In the case of `O=[N+]([O-])O[C@@H]1CO[C@H]2[C@@H]1OC[C@@H]2O`, the logP [26] is reported as -0.15.

For `CC(C)C(C)O` (stereo not drawn), the logP [27] was 1.28.
